{"source": "patent US8927717B1", "about": "“Thiochromeno[2,3-c]quinolin-12-one derivatives, preparation method and application thereof” (National Defense Medical Center, priority 2014, dated 2015)", "key": {"SF-268": {"tested_on": "SF-268", "format": "cell-based", "conditions": "SF-268; 10^−5 molar"}, "UO-31": {"tested_on": "UO-31", "format": "cell-based", "conditions": "UO-31; 10^−5 molar"}, "SK-MEL-28": {"tested_on": "SK-MEL-28", "format": "cell-based", "conditions": "SK-MEL-28; 10^−5 molar"}, "NCI-H23": {"tested_on": "NCI-H23", "format": "cell-based", "conditions": "NCI-H23; 10^−5 molar"}, "SK-OV-3": {"tested_on": "SK-OV-3", "format": "cell-based", "conditions": "SK-OV-3; 10^−5 molar"}, "SW-620": {"tested_on": "SW-620", "format": "cell-based", "conditions": "SW-620; 10^−5 molar"}, "A549/ATCC": {"tested_on": "A549/ATCC", "format": "cell-based", "conditions": "A549/ATCC; 10^−5 molar"}, "HCT-15": {"tested_on": "HCT-15", "format": "cell-based", "conditions": "HCT-15; 10^−5 molar"}, "OVCAR-8": {"tested_on": "OVCAR-8", "format": "cell-based", "conditions": "OVCAR-8; 10^−5 molar"}, "HOP-62": {"tested_on": "HOP-62", "format": "cell-based", "conditions": "HOP-62; 10^−5 molar"}, "MCF7": {"tested_on": "MCF7", "format": "cell-based", "conditions": "MCF7; 10^−5 molar"}, "CCRF-CEM": {"tested_on": "CCRF-CEM", "format": "cell-based", "conditions": "CCRF-CEM; 10^−5 molar"}, "MDA-MB-231/ATCC": {"tested_on": "MDA-MB-231/ATCC", "format": "cell-based", "conditions": "MDA-MB-231/ATCC; 10^−5 molar"}, "NCI-H460": {"tested_on": "NCI-H460", "format": "cell-based", "conditions": "NCI-H460; 10^−5 molar"}, "CAKI-1": {"tested_on": "CAKI-1", "format": "cell-based", "conditions": "CAKI-1; 10^−5 molar"}, "NCI-H226": {"tested_on": "NCI-H226", "format": "cell-based", "conditions": "NCI-H226; 10^−5 molar"}, "HT29": {"tested_on": "HT29", "format": "cell-based", "conditions": "HT29; 10^−5 molar"}, "OVCAR-3": {"tested_on": "OVCAR-3", "format": "cell-based", "conditions": "OVCAR-3; 10^−5 molar"}, "TK-10": {"tested_on": "TK-10", "format": "cell-based", "conditions": "TK-10; 10^−5 molar"}, "SNB-19": {"tested_on": "SNB-19", "format": "cell-based", "conditions": "SNB-19; 10^−5 molar"}, "SN12C": {"tested_on": "SN12C", "format": "cell-based", "conditions": "SN12C; 10^−5 molar"}, "60 cancer cell lines": {"tested_on": "60 cancer cell lines", "assay": "NCI 60-cell screen, SRB, whole panel (mean, delta, range)", "format": "cell-based", "conditions": "10^−5 molar"}, "UACC-62": {"tested_on": "UACC-62", "format": "cell-based", "conditions": "UACC-62; 10^−5 molar"}, "K-562": {"tested_on": "K-562", "format": "cell-based", "conditions": "K-562; 10^−5 molar"}, "UACC-257": {"tested_on": "UACC-257", "format": "cell-based", "conditions": "UACC-257; 10^−5 molar"}, "HCT-116": {"tested_on": "HCT-116", "format": "cell-based", "conditions": "HCT-116; 10^−5 molar"}, "SR": {"tested_on": "SR", "format": "cell-based", "conditions": "SR; 10^−5 molar"}, "MDA-MB-486": {"tested_on": "MDA-MB-486", "format": "cell-based", "conditions": "MDA-MB-486; 10^−5 molar"}, "BT-549": {"tested_on": "BT-549", "format": "cell-based", "conditions": "BT-549; 10^−5 molar"}, "KM12": {"tested_on": "KM12", "assay": "cells", "format": "cell-based", "conditions": "KM12; 10^−5 molar"}, "PC-3": {"tested_on": "PC-3", "format": "cell-based", "conditions": "PC-3; 10^−5 molar"}, "SK-MEL-5": {"tested_on": "SK-MEL-5", "format": "cell-based", "conditions": "SK-MEL-5; 10^−5 molar"}, "HS 578T": {"tested_on": "HS 578T", "format": "cell-based", "conditions": "HS 578T; 10^−5 molar"}, "NCI-H522": {"tested_on": "NCI-H522", "format": "cell-based", "conditions": "NCI-H522; 10^−5 molar"}, "SF-539": {"tested_on": "SF-539", "format": "cell-based", "conditions": "SF-539; 10^−5 molar"}, "NCI/ADR-RES": {"tested_on": "NCI/ADR-RES", "format": "cell-based", "conditions": "NCI/ADR-RES; 10^−5 molar"}, "IGROV1": {"tested_on": "IGROV1", "format": "cell-based", "conditions": "IGROV1; 10^−5 molar"}, "DU-145": {"tested_on": "DU-145", "format": "cell-based", "conditions": "DU-145; 10^−5 molar"}, "HL-60(TB)": {"tested_on": "HL-60(TB)", "format": "cell-based", "conditions": "HL-60(TB); 10^−5 molar"}, "MDA-MB-435": {"tested_on": "MDA-MB-435", "format": "cell-based", "conditions": "MDA-MB-435; 10^−5 molar"}, "SNB-75": {"tested_on": "SNB-75", "format": "cell-based", "conditions": "SNB-75; 10^−5 molar"}, "HCC-2998": {"tested_on": "HCC-2998", "format": "cell-based", "conditions": "HCC-2998; 10^−5 molar"}, "ACHN": {"tested_on": "ACHN", "format": "cell-based", "conditions": "ACHN; 10^−5 molar"}, "SF-295": {"tested_on": "SF-295", "format": "cell-based", "conditions": "SF-295; 10^−5 molar"}, "OVCAR-5": {"tested_on": "OVCAR-5", "format": "cell-based", "conditions": "OVCAR-5; 10^−5 molar"}, "OVCAR-4": {"tested_on": "OVCAR-4", "format": "cell-based", "conditions": "OVCAR-4; 10^−5 molar"}, "MALME-3M": {"tested_on": "MALME-3M", "format": "cell-based", "conditions": "MALME-3M; 10^−5 molar"}, "M14": {"tested_on": "M14", "format": "cell-based", "conditions": "M14; 10^−5 molar"}, "T-47D": {"tested_on": "T-47D", "format": "cell-based", "conditions": "T-47D; 10^−5 molar"}, "COLO 205": {"tested_on": "COLO 205", "format": "cell-based", "conditions": "COLO 205; 10^−5 molar"}, "A498": {"tested_on": "A498", "format": "cell-based", "conditions": "A498; 10^−5 molar"}, "RXF 393": {"tested_on": "RXF 393", "format": "cell-based", "conditions": "RXF 393; 10^−5 molar"}, "786-0": {"tested_on": "786-0", "format": "cell-based", "conditions": "786-0; 10^−5 molar"}, "RPMI-8226": {"tested_on": "RPMI-8226", "format": "cell-based", "conditions": "RPMI-8226; 10^−5 molar"}, "MOLT-4": {"tested_on": "MOLT-4", "format": "cell-based", "conditions": "MOLT-4; 10^−5 molar"}}}
{"smiles": "O=c1c2cc(Cl)ccc2sc2c(NC3CCCCC3)nc3ccccc3c12", "note": "[Compound N21, 10-Chloro-6-(cyclohexylamino)-12H-thiochromeno[2,3-c]quinolin-12-one]", "values": [{"measurement": "Growth percent", "setting": "SF-268", "value": 92.06, "unit": "%"}, {"measurement": "Growth percent", "setting": "UO-31", "value": 72.52, "unit": "%"}, {"measurement": "Growth percent", "setting": "SK-MEL-28", "value": 101.79, "unit": "%"}, {"measurement": "Growth percent", "setting": "NCI-H23", "value": 91.11, "unit": "%"}, {"measurement": "Growth percent", "setting": "SK-OV-3", "value": 94.54, "unit": "%"}, {"measurement": "Growth percent", "setting": "SW-620", "value": 87.98, "unit": "%"}, {"measurement": "Growth percent", "setting": "A549/ATCC", "value": 85.28, "unit": "%"}, {"measurement": "Growth percent", "setting": "HCT-15", "value": 91.71, "unit": "%"}, {"measurement": "Growth percent", "setting": "OVCAR-8", "value": 74.91, "unit": "%"}, {"measurement": "Growth percent", "setting": "HOP-62", "value": 101.46, "unit": "%"}, {"measurement": "Growth percent", "setting": "MCF7", "value": 46.14, "unit": "%"}, {"measurement": "Growth percent", "setting": "CCRF-CEM", "value": 92.23, "unit": "%"}, {"measurement": "Growth percent", "setting": "MDA-MB-231/ATCC", "value": 77.17, "unit": "%"}, {"measurement": "Growth percent", "setting": "NCI-H460", "value": 91.29, "unit": "%"}, {"measurement": "Growth percent", "setting": "CAKI-1", "value": 72.76, "unit": "%"}, {"measurement": "Growth percent", "setting": "NCI-H226", "value": 93.26, "unit": "%"}, {"measurement": "Growth percent", "setting": "HT29", "value": 105.11, "unit": "%"}, {"measurement": "Growth percent", "setting": "OVCAR-3", "value": 91.85, "unit": "%"}, {"measurement": "Growth percent", "setting": "TK-10", "value": 127.96, "unit": "%"}, {"measurement": "Growth percent", "setting": "SNB-19", "value": 106.72, "unit": "%"}, {"measurement": "Growth percent", "setting": "SN12C", "value": 89.12, "unit": "%"}, {"measurement": "Growth percent, Delta", "setting": "60 cancer cell lines; delta over panel", "value": 46.48, "unit": "%"}, {"measurement": "Growth percent, Mean", "setting": "60 cancer cell lines; mean over panel", "value": 92.62, "unit": "%"}, {"measurement": "Growth percent, Range", "setting": "60 cancer cell lines; range over panel", "value": 81.82, "unit": "%"}, {"measurement": "Growth percent", "setting": "UACC-62", "value": 93.23, "unit": "%"}, {"measurement": "Growth percent", "setting": "K-562", "value": 102.86, "unit": "%"}, {"measurement": "Growth percent", "setting": "UACC-257", "value": 103.68, "unit": "%"}, {"measurement": "Growth percent", "setting": "HCT-116", "value": 65.37, "unit": "%"}, {"measurement": "Growth percent", "setting": "SR", "value": 85.52, "unit": "%"}, {"measurement": "Growth percent", "setting": "MDA-MB-486", "value": 108.92, "unit": "%"}, {"measurement": "Growth percent", "setting": "BT-549", "value": 105.53, "unit": "%"}, {"measurement": "Growth percent", "setting": "KM12", "value": 112.90, "unit": "%"}, {"measurement": "Growth percent", "setting": "PC-3", "value": 75.02, "unit": "%"}, {"measurement": "Growth percent", "setting": "SK-MEL-5", "value": 97.00, "unit": "%"}, {"measurement": "Growth percent", "setting": "HS 578T", "value": 94.22, "unit": "%"}, {"measurement": "Growth percent", "setting": "NCI-H522", "value": 83.95, "unit": "%"}, {"measurement": "Growth percent", "setting": "SF-539", "value": 91.20, "unit": "%"}, {"measurement": "Growth percent", "setting": "NCI/ADR-RES", "value": 95.91, "unit": "%"}, {"measurement": "Growth percent", "setting": "IGROV1", "value": 83.31, "unit": "%"}, {"measurement": "Growth percent", "setting": "DU-145", "value": 104.25, "unit": "%"}, {"measurement": "Growth percent", "setting": "HL-60(TB)", "value": 107.06, "unit": "%"}, {"measurement": "Growth percent", "setting": "MDA-MB-435", "value": 106.98, "unit": "%"}, {"measurement": "Growth percent", "setting": "SNB-75", "value": 81.91, "unit": "%"}, {"measurement": "melting point", "value": "196 to 197", "unit": "°C"}, {"measurement": "Growth percent", "setting": "HCC-2998", "value": 109.83, "unit": "%"}, {"measurement": "Growth percent", "setting": "ACHN", "value": 97.31, "unit": "%"}, {"measurement": "Growth percent", "setting": "SF-295", "value": 92.22, "unit": "%"}, {"measurement": "Growth percent", "setting": "OVCAR-5", "value": 98.06, "unit": "%"}, {"measurement": "Growth percent", "setting": "OVCAR-4", "value": 72.10, "unit": "%"}, {"measurement": "Growth percent", "setting": "MALME-3M", "value": 93.42, "unit": "%"}, {"measurement": "Growth percent", "setting": "M14", "value": 103.41, "unit": "%"}, {"measurement": "Growth percent", "setting": "T-47D", "value": 72.43, "unit": "%"}, {"measurement": "Growth percent", "setting": "COLO 205", "value": 103.96, "unit": "%"}, {"measurement": "Growth percent", "setting": "A498", "value": 93.00, "unit": "%"}, {"measurement": "Growth percent", "setting": "RXF 393", "value": 97.03, "unit": "%"}, {"measurement": "Growth percent", "setting": "786-0", "value": 97.69, "unit": "%"}, {"measurement": "Growth percent", "setting": "RPMI-8226", "value": 94.56, "unit": "%"}, {"measurement": "Growth percent", "setting": "MOLT-4", "value": 92.42, "unit": "%"}]}
